Data on one compound can be found in patent publication US20090053697A1, “Pharmacological Applications of Mitochondrial DNA Assays” (priority 2001, published 2009).

This data set is described as follows: Random venous lactic acid measurement. It counts as in vivo, human. To be noted: for months after resuming therapy; normal range 0.5-2.1 mmol/L. The text has this: Venous specimens for lactic acid determination were collected in sodium fluoride/potassium oxalate tubes, with normal tourniquet and no specific patient instruction other than the avoidance of first clenching or hand pumping. […]

With `Cc1cn([C@H]2C[C@H](N=[N+]=[N-])[C@@H](CO)O2)c(=O)[nH]c1=O` [zidovudine], the venous lactate levels result is “remained within the normal range”.
